From article PMC6155315, “Enantiomeric Aβ peptides inhibit the fluid shear stress response of PIEZO1” (Scientific Reports, 2018)
Values joined by “and” are separate entries in the source; they are usually repeats but may differ in a detail not shown here. Identical values can stand only once. Positions of bridges follow the written chain, without caps; N, C: chain ends. Residues, ends and D or L forms follow the SMILES beside them.

What was measured:
hPIEZO1 = molecular target: T1, hPIEZO1 (Homo sapiens, UniProt Q92508); experiment: Fluid shear stress assay: shear-induced [Ca2+]i increase (Fluo-4 AM) in hP1-CL cells; assay type: cell-based; conditions: for Effect on fluid shear [Ca2+]i response: hP1-CL cells; for Shear response of hP1-CL cells after cytoskeletal disruption: concentration not given
T1 construct: expressed in transfected cells
T1 sequence (Q92508 whole entry): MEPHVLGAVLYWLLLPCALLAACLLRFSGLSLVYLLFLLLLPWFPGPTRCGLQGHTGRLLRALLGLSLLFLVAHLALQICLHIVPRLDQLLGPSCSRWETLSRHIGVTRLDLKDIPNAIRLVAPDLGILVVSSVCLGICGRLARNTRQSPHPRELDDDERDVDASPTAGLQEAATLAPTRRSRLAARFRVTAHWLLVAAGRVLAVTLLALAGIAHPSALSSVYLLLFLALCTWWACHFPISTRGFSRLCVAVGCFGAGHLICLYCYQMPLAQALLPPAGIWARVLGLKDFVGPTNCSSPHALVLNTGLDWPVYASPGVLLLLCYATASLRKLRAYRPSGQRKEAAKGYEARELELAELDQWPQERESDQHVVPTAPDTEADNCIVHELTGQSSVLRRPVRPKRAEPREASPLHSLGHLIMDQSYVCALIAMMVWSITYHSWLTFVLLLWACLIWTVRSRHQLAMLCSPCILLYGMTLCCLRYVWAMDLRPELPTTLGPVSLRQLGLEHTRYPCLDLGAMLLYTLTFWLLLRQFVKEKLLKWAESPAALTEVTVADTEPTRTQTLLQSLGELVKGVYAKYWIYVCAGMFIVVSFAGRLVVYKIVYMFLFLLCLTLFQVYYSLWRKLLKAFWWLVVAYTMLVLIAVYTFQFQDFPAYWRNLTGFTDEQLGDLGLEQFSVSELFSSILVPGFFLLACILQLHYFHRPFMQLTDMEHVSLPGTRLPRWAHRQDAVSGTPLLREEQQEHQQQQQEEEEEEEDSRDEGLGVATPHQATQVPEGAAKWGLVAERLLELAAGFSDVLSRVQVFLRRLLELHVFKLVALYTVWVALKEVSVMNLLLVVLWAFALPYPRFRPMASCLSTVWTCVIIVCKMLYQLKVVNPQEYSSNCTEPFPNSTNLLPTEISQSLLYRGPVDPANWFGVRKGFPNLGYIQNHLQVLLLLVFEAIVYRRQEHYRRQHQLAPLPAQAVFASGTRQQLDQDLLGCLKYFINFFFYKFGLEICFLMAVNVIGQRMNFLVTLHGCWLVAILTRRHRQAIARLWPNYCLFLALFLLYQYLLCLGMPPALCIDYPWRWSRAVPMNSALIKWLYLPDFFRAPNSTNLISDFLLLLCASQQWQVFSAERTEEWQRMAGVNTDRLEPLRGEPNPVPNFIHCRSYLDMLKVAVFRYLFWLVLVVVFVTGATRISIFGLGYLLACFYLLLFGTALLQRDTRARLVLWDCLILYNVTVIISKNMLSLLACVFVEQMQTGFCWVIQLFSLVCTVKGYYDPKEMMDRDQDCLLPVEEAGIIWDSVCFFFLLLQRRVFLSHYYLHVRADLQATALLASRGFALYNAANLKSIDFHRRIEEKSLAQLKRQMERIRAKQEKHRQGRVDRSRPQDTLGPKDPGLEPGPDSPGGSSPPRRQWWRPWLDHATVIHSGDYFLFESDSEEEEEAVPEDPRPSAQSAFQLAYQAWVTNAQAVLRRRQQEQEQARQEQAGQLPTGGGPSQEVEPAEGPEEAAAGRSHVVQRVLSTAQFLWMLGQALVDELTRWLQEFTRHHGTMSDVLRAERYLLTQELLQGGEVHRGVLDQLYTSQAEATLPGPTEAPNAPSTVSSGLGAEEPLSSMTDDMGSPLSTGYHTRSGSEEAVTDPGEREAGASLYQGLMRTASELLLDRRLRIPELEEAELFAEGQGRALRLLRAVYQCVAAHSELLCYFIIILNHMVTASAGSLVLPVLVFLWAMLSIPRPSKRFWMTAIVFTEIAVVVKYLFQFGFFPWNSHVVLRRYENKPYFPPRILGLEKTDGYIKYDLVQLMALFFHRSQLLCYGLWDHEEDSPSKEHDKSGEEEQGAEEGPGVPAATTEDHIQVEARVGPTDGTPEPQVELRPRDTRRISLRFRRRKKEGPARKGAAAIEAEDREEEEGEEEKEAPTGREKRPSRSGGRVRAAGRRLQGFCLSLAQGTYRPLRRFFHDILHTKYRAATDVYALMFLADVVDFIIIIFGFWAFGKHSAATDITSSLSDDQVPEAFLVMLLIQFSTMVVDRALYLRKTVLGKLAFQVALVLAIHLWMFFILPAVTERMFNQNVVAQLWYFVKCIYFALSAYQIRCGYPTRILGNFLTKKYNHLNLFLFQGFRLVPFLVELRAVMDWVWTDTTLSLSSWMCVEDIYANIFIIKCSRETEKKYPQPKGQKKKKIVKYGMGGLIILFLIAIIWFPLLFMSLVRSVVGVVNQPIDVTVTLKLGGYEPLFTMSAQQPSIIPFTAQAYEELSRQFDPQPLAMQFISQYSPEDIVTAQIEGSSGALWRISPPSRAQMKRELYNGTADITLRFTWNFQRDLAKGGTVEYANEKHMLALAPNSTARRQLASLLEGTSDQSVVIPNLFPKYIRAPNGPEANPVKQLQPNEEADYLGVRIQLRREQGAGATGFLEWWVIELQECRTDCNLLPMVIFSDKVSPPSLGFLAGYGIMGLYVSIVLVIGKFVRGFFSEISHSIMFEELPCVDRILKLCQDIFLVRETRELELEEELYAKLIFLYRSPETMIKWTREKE
Method: We first created a cell line that expressed a fluorescently tagged version of human PIEZO1 called hPIEZO1-1591-EGFP[5]. […] The cDNA was integrated into the genome of HEK293T cells using a lentivirus vector.
The microfluidic chambers had glass coverslip bottoms coated with human fibronectin (Invitrogen)[20] and fluid flow guided by PDMS channels. Cells were cultured in the chamber for 3 days, with daily medium changes. On the experimental day, chambers were rinsed with isotonic solution (75 mM NaCl, 5 mM KCl, 2 mM MgCl2, 1 mM CaCl2 and 10 mM HEPES, adjusted to 320 mOsm with mannitol). A stock of Fluo-4 AM was diluted to 5 µM in isotonic saline and incubated with cells for 10–30 min at 37C°. Chambers were then rinsed twice with isotonic solution and incubated for 8 minutes to complete Fluo-4 AM de-esterification. A single fluid shear stress pulse of ~15 dynes/cm^2 for 8–10 ms was applied to the chamber using a high-speed pressure servo (HSPC-1 from ALA). Peptide stocks were kept at 4 °C until used, dissolved to desired concentrations, and immediately added to cells.
Images of the cellular response to shear stress were captured by an EM-CCD camera (C9100 model, Hamamatsu) at a nominal rate of 1 Hz. To quantify the response, the average intensity in the field of view was background subtracted. Image intensity was adjusted for the rate of bleaching. Each condition was repeated in four separate chambers, and the results averaged. The responses were normalized to the control experiments, and the inhibition was calculated as previously described. The data points were fit by a Hill plot with the equation:1 y=Vmax⁎x^n/(k^n+x^n) where Vmax is the maximum response, n is the Hill coefficient, and k is related to the concentration at half-maximal response.

PIEZO1 channels = assay type: cell-based, human; conditions: 5 µM perfused, 50 mV, 60 mmHg pulses; 3 independent experiments
Method: We examined whether the Aβ could inhibit PIEZO1 currents in the patch. We formed outside/out patches from the hP1 cell line and tested whether 10 µM of Aβ (1-40) or Aβ (1-42) (Peptide Method I) inhibited channel activity, a concentration that blocked the shear response.
Cell-attached and outside-out patches were used as previously described[47]. All experiments were at room temperature. Pressure or suction steps were applied to the membranes using a high speed pressure clamp (ALA)[48]. The bath solution contained (in mM): 150 KCl, 10 HEPES, 1 MgCl2, 1 CaCl2 at pH 7.4 that clamped the resting membrane potential to zero. The pipette solution was 150 mM KCl at pH 7.4.
Shown above are typical results from single patches. Left- a positive pressure pulse of 60 mmHg at 50 mV lasting 500 msec was applied to an O/O patch every 2 seconds. After 12 pulses (24 seconds, black trace is the average of 12 pulses), 10 µM of L Aβ(1-40) was applied by perfusion and activity was monitored for 30 seconds (red trace is the average of 15 pulses). […] Center- The effect of Aβ(1-42) on a different patch (identical conditions described above). 12 pressure pulses (black trace) established a baseline response. […] 6 pressure pulses (50 mV, 60 mmHg) were applied to establish the baseline response (black). […]

hP1-mCherry-CL cells = experiment: Actin stress, cpst-FRET actin force probe, in PIEZO1-overexpressing cells; assay type: cell-based, human; conditions: for Effect on actin stress: 37 °C, 15 cells from 3 experiments
Description: Cell movement in the presence of PIEZO1 channels appears to rely on cytoskeletal integrity and plasticity, consistent with the ability of cytoskeletal disrupting agents to prevent PIEZO1 activation (Supplementary Fig. 4A). We examined forces within the cytoskeleton during channel inhibition. By transient transfection, we introduced a genetically encoded optical probe of actin stress (cpst-FRET) into stable hP1-mCherry-CL cells[19] (Fig. 4A), resulting in probe expression into F-actin. […] For each experiments described below, we analyzed and averaged (with SD) 15 cells from 3 different experiments. […] 10 pM of monomerized scrambled Aβ peptide (black squares) also had no effect on actin stress.
Figure 4 D-GsMTx4 and the enantiomeric Aβ(1-40) peptides inhibit Ca^2+ entry, and increase cytoskeleton stress in hP1-mCherry-CL cells. hP1-mCherry-CL cells were transiently transfected with cDNA encoding the actin force probe to monitor peptide-induced changes to the cell’s cytoskeleton. […] Each data point is the average of 15 cells from 3 different experiments (with SD). A baseline response is established in the first 30 minutes (37 °C and 5% CO2). Addition (green bar) of D-GsMTx4 (5 uM, black squares) or monomeric enantiomeric Aβ(1-40) peptides (10 pM; L, red circles; D, blue triangles) elicits immediate increases in actin stress. […] Bath removal of extracellular Ca^2+ elicits the largest effect (40%, blue triangles). Data points are 15 cells from 3 independent experiments with SD. Panel D summarizes Aβ responses at the 60 min time point (paired t-test). […] Before and after intensities were analyzed by paired t-test ([…]). […]
(§1) To measure cytoskeletal stress, hP1-mCherry-CL cells were transiently transfected with cDNA encoding the cpst-actin FRET probe. The FRET ratio of […] was measured by simultaneous imaging using an image splitter. Baseline actin stress was measured at 37 °C in isotonic solution for 30 min before peptide addition (see above).

HEK293T cells = experiment: Actin stress, actin force probe, in unmodified control cells; assay type: cell-based
Method: (Panel A) HEK293T cells were monitored for 30 min to establish a baseline.
as §1

hP1-CL cells = experiment: Cell migration (wound healing) assay with peel-off PDMS barrier; assay type: cell-based, human; conditions: 5 µM
Method: PIEZO1 channels are involved in neurite extension[16] and other types of cell motility. This led us to test the effects of Aβ peptides on hP1-CL motility in a wound healing assay. Cells were grown to confluence on glass coverslips half-coated with PDMS (Polydimethylsiloxane). The PDMS layer was then peeled off allowing us to accurately measure the collective cell migration rates across the newly exposed glass surface.
Figure 3 Aβ peptides inhibit migration of hP1-CL cells. Cell migration was measured as cell movement on glass cover slips in polystyrene dishes at 37 °C and 5% CO2. A PDMS barrier to cell growth was created on the cover slip. When cells reached confluency, the barrier was peeled off. Images of the resulting, initially sharp confluent cell boundary were captured at 0.003 Hz over 5 hours. […] Bottom left panel summarizes the mean cell migration distances as a function of time. […] Three independent experiments were averaged (SEM).
Half of a glass coverslip was coated with catalyzed PDMS (polydimethylsiloxane) (9:1) and allowed to harden. Cells were cultured on the complete coverslip kept in tissue culture dishes. After achieving confluency, the PDMS was peeled from the glass. The location of the front edge of the confluent cells was monitored for 5 hr at 37 C° with 5% CO2-supplemented DMEM media containing 10% bovine serum. […]

## CC(C)C[C@@H]1NC(=O)[C@@H](NC(=O)CN)CSSC[C@@H]2NC(=O)[C@@H]3CSSC[C@@H](C(=O)N[C@@H](CC(N)=O)C(=O)N[C@@H](Cc4ccccc4)C(=O)N[C@@H](CO)C(=O)N[C@@H](Cc4ccccc4)C(N)=O)NC(=O)[C@H](CC(C)C)NC(=O)[C@H](CCCCN)NC(=O)[C@H](Cc4ccccc4)NC(=O)[C@H](CC(C)C)NC(=O)[C@H](CCCCN)NC(=O)[C@H](CO)NC(=O)[C@H](CSSC[C@H](NC(=O)[C@H](CCCCN)NC(=O)[C@H](Cc4c[nH]c5ccccc45)NC(=O)[C@H](Cc4c[nH]c5ccccc45)NC(=O)[C@H](Cc4ccccc4)NC(=O)[C@H](CCC(=O)O)NC1=O)C(=O)N[C@@H](CC(N)=O)C(=O)N1CCC[C@H]1C(=O)N[C@@H](CC(N)=O)C(=O)N[C@@H](CC(=O)O)C(=O)N[C@@H](CC(=O)O)C(=O)N[C@@H](CCCCN)C(=O)N3)NC(=O)[C@H](CCCCN)NC(=O)[C@H](CC(C)C)NC(=O)[C@H](CCCCN)NC(=O)[C@@H]1CCCN1C(=O)[C@H](CCCNC(=N)N)NC2=O [GsMTx4] (H-GCLEFWWKCNPNDDKCCRPKLKCSKLFKLCNFSF-NH2; disulfide 2-17, 9-23, 16-30; N-terminus and C-terminus assumed)
hPIEZO1; 5 µM, Supplementary Fig. 3A
  Effect on fluid shear [Ca2+]i response: inhibited the shear stress response
hPIEZO1; shear stress assay, Aβ: within 20 min or with shear stress raised to 25 dynes/cm2
  Reversibility of channel inhibition on washout: readily restored
hPIEZO1; titration of shear stress response of hP1-CL cells
  Hill coefficient: 1.9 and ~ 1.9
PIEZO1 channels
  Inhibition of PIEZO1 outside/out patch current: 0.67 ± 0.07

## COc1cc2c(c(OC)c1OC)-c1ccc(OC)c(=O)cc1[C@@H](NC(C)=O)CC2 [colchicine]
hPIEZO1; Supplementary Fig. 3A
  Shear response of hP1-CL cells after cytoskeletal disruption: unresponsive to fluid shear

## C=C1[C@@H](C)[C@H]2[C@H](Cc3ccccc3)NC(=O)[C@]23[C@H](OC(C)=O)/C=C/[C@@](C)(O)C(=O)[C@@H](C)C/C=C/[C@H]3[C@@H]1O [cytochalasin D]
hPIEZO1; Supplementary Fig. 3A
  Shear response of hP1-CL cells after cytoskeletal disruption: unresponsive to fluid shear

## AEGDSHVLKEGAYMEIFDVQGHVFGGKIFRVVDLGSHNVA [scrambled L-Aβ(1-40), scrambled Aβ(1-40) peptide purchased from Anaspec, used as control]
hPIEZO1; 10 µM peptide, 4 independent experiments
  Effect on fluid shear [Ca2+]i response: lack of PIEZO1 inhibition
hP1-mCherry-CL cells; 10 pM monomeric peptide added after 30 min baseline
  Effect on actin stress: no effect
HEK293T cells; concentration not given, after 30 min baseline
  Effect on actin stress probe FRET in HEK293T cells: no change

## D-GsMTx4
hPIEZO1; 5 µM, Supplementary Fig. 3A
  Effect on fluid shear [Ca2+]i response: complete inhibition
hP1-CL cells
  Effect on hP1-CL cell migration: blocked
hP1-CL cells; hP1-CL cells, 5 hr, 37 °C, 3 independent experiments
  Slowing of cell migration: over 10 fold
hP1-mCherry-CL cells; 5 µM added after 30 min baseline
  Effect on actin stress: increase in actin stress
hP1-mCherry-CL cells; actin force probe images, Fig. 4E,F, 20 lamellipodia from 4 cells
  Effect on F-actin in lamellipodia: drop of F-actin tension and its retraction from the lamellipodia
HEK293T cells; 5 µM, 15 cells from 3 experiments
  Effect on actin stress in HEK293T cells: no effect

## HiLyte Aβ(1-42): L-Aβ(1-42) fluorescently labeled at the N-terminus with HiLyte (555), purchased (Anaspec) and monomerized
hPIEZO1; 5 pM and 100 pM monomerized peptide, 4 independent experiments
  Effect on shear stress response of the hPIEZO1 cell line: inhibited
hPIEZO1; 100 pM monomerized peptide, 4 independent experiments
  Effect on PIEZO1-mediated Ca2+ response to shear stress: completely inhibited
